Data on ten molecules can be found in patent publication US9428499B2, “Heterocyclyl compounds as MEK inhibitors” (LUPIN LIMITED, priority 2012, dated 2016).

One test has as its system ERK phosphorylation. As to the kind of experiment: Analysis of ERK phosphorylation (Alphascreen SureFire Phospho-ERK 1/2). The class given is cell-based, human and mouse. Conditions: read-out: Minimum concentration (nM) required for ≧80% inhibition of pERK. Put shortly:
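Human melanoma and human and mouse colon cancer cells were exposed to compounds for 1 h. Phospho-ERK1/2 was read by AlphaScreen SureFire. Percent inhibition was calculated from RFU relative to vehicle-treated and lysis-buffer controls.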
A general note: Alpha assays give light when donor and acceptor beads are brought close together.

Test [1] deals with MEK phosphorylation (S218 and S222). Put plainly: Analysis of B-Raf-mediated MEK phosphorylation (Alphascreen SureFire Phospho-MEK). The class given is cell-based, human. Conditions: read-out: % Inhibition of MEK phosphorylation, 1 h. How it is done:
This assay was carried out with human melanoma cells. Cells were treated for 1 h with various concentrations of test compounds. MEK phosphorylation (S218 and S222) analysis was performed using the Alphascreen SureFire Phospho-MEK Kit (Perkin Elmer), by following the manufacturer's instructions. % inhibition of […] phosphorylation was determined as: 100−{(RFU test−RFU lysis buffer control)/(RFU vehicle treated control−RFU lysis buffer control)}×100.

Setting [2] is: cells treated for 1 h, human melanoma cells, human and mouse colon cancer cells.
Setting [3] is: 1 nM, human melanoma cells, read-out: % Inhibition of MBK phosphorylation.
The mark [4] stands for this setting: 10 nM, human melanoma cells, read-out: % Inhibition of MBK phosphorylation.
[5] abbreviates: 100 nM, human melanoma cells, read-out: % Inhibition of MBK phosphorylation.

Read-outs that look alike come from different tables or passages of the source.

As a reminder, the inhibition is how much of the control response was suppressed. Turning to `Cc1c(=O)n(C)c(Nc2ccc(I)cc2F)c2c(=O)[nH]c(=O)n(-c3cccc(C(=O)NC4CC4)c3)c12` [Compound 2, N-cyclopropyl-3-(5-((2-fluoro-4-iodophenyl)amino)-6,8-dimethyl-2,4,7-trioxo-3,4,6,7-tetrahydropyrido[4,3-d]pyrimidin-1(2H)-yl)benzamide], the IC80 with ERK phosphorylation (setting [2]) was 0.01 nM. Further, the inhibition at 0.001 µM in test [1] (setting [3]) is 72.2%. Further, the inhibition at 0.01 µM in test [1] (setting [4]) turned out to be 93.4%. Moreover, the inhibition at 0.1 µM in test [1] (setting [5]) is 96.4%.
With `CNC(=O)COc1cccc(-n2c(=O)[nH]c(=O)c3c(Nc4ccc(I)cc4F)n(C)c(=O)c(C)c32)c1` [Compound 5, 2-(3-(5-((2-fluoro-4-iodophenyl)amino)-6,8-dimethyl-2,4,7-trioxo-3,4,6,7-tetrahydropyrido[4,3-d]pyrimidin-1(2H)-yl)phenoxy)-N-methylacetamide], the IC80 with ERK phosphorylation (setting [2]) fell in the range of 0.1 to 0.9 nM. In addition, in test [1] (setting [3]), the inhibition at 0.001 µM was 93.9%. In addition, the inhibition at 0.01 µM in test [1] (setting [4]) stood at 97.4%. Further, the inhibition at 0.1 µM in test [1] (setting [5]) is 97.4%.
On to `Cc1c(=O)n(C)c(Nc2ccc(I)cc2F)c2c(=O)[nH]c(=O)n(-c3cccc(OCC(N)=O)c3)c12` [Compound 16, 2-(3-(5-((2-fluoro-4-iodophenyl)amino)-6,8-dimethyl-2,4,7-trioxo-3,4,6,7-tetrahydropyrido[4,3-d]pyrimidin-1(2H)-yl)phenoxy)acetamide], for which the IC80 in the test with ERK phosphorylation (setting [2]) was 1 to 3 nM. Further, the inhibition at 0.001 µM in test [1] (setting [3]) worked out at 89.2%. For the same molecule, the inhibition at 0.01 µM in test [1] (setting [4]) was 93.3%. Moreover, the inhibition at 0.1 µM in test [1] (setting [5]) came to 94.7%.
`Cc1c(=O)n(C)c(Nc2ccc(I)cc2F)c2c(=O)n(C3CC3)c(=O)n(-c3cccc(CC(=O)N(C)C)c3)c12` [Compound 29, 2-(3-(3-cyclopropyl-5-((2-fluoro-4-iodophenyl)amino)-6,8-dimethyl-2,4,7-trioxo-3,4,6,7-tetrahydropyrido[4,3-d]pyrimidin-1(2H)-yl)phenyl)-N,N-dimethylacetamide]: the IC80 with ERK phosphorylation (setting [2]) was in the range of 0.1 to 0.9 nM. In addition, the inhibition at 0.001 µM in test [1] (setting [3]) amounted to 52.9%. Also, the inhibition at 0.01 µM in test [1] (setting [4]) was 72.9%. Further, the inhibition at 0.1 µM in test [1] (setting [5]) worked out at 76.4%.
For `Cc1c(=O)n(C)c(Nc2ccc(I)cc2F)c2c(=O)n(C3CC3)c(=O)n(-c3cccc(C(=O)NC4CC4)c3)c12` [Compound 37, N-cyclopropyl-3-(3-cyclopropyl-5-((2-fluoro-4-iodophenyl)amino)-6,8-dimethyl-2,4,7-trioxo-3,4,6,7-tetrahydropyrido[4,3-d]pyrimidin-1(2H)-yl)benzamide], the IC80 in the test on ERK phosphorylation (setting [2]) lay within 1 to 3 nM. Moreover, the inhibition at 0.001 µM in test [1] (setting [3]) came out at 54.7%. The inhibition at 0.01 µM in test [1] (setting [4]) was found to be 85.9%. The inhibition at 0.1 µM in test [1] (setting [5]) was 92.4%.
As to `Cc1c(=O)n(C)c(Nc2ccc(I)cc2F)c2c(=O)n(C)c(=O)n(-c3cccc(OCC(N)=O)c3)c12` [Compound 57, 2-(3-(5-((2-fluoro-4-iodophenyl)amino)-3,6,8-trimethyl-2,4,7-trioxo-3,4,6,7-tetrahydropyrido[4,3-d]pyrimidin-1(2H)-yl)phenoxy)acetamide], the IC80 with ERK phosphorylation (setting [2]) lay in the range of 1 to 3 nM. The inhibition at 0.001 µM in test [1] (setting [3]) turned out to be 63.3%. For the same molecule, the inhibition at 0.01 µM in test [1] (setting [4]) was found to be 76.4%. Also, in test [1] (setting [5]), the inhibition at 0.1 µM turned out to be 83%.
Turning to `Cc1c(=O)n(C)c(Nc2ccc(I)cc2F)c2c(=O)n(C)c(=O)n(-c3cccc([C@H](O)C(N)=O)c3)c12` [Compound 76, (S)-2-(3-(5-((2-fluoro-4-iodophenyl)amino)-3,6,8-trimethyl-2,4,7-trioxo-3,4,6,7-tetrahydropyrido[4,3-d]pyrimidin-1(2H)-yl)phenyl)-2-hydroxyacetamide], the IC80 with ERK phosphorylation (setting [2]) lay in the range of 4 to 100 nM.
Turning to `Cc1c(=O)n(C)c(Nc2ccc(I)cc2F)c2c(=O)[nH]c(=O)n(-c3cccc(C4(C(N)=O)CC4)c3)c12` [Compound 77, 1-(3-(5-((2-fluoro-4-iodophenyl)amino)-6,8-dimethyl-2,4,7-trioxo-3,4,6,7-tetra hydropyrido[4,3-d]pyrimidin-1(2H)-yl)phenyl)cyclopropanecarboxamide], the IC80 in the test with ERK phosphorylation (1 h) lay in the range of 0.1 to 0.9 nM. In test [1] (Homo sapiens), the inhibition at 0.001 µM turned out to be 49%, the inhibition at 0.01 µM came to 67.8% and the inhibition at 0.1 µM is 85.5%.
Regarding `Cc1c(=O)n(C)c(Nc2ccc(I)cc2F)c2c(=O)n(C3CC3)c(=O)n(-c3cccc(C4(C(N)=O)CC4)c3)c12` [Compound 78, 1-(3-(3-cyclopropyl-5-((2-fluoro-4-iodophenyl)amino)-6,8-dimethyl-2,4,7-trioxo-3,4,6,7-tetrahydropyrido[4,3-d]pyrimidin-1(2H)-yl)phenyl)cyclopropanecarboxamide], in the test with ERK phosphorylation (setting [2]), the IC80 fell in the range of 0.1 to 0.9 nM. Besides, the inhibition at 0.001 µM in test [1] (setting [3]) was 42.6%. For the same molecule, the inhibition at 0.01 µM in test [1] (setting [4]) came out at 56.7%. For the same molecule, the inhibition at 0.1 µM in test [1] (setting [5]) stood at 75.4%.
Consider `Cc1c(=O)n(C)c(Nc2ccc(I)cc2F)c2c(=O)n(C)c(=O)n(-c3cccc(C4(C(N)=O)CC4)c3)c12` [Compound 79, 1-(3-(5-((2-fluoro-4-iodophenyl)amino)-3,6,8-trimethyl-2,4,7-trioxo-3,4,6,7-tetrahydropyrido[4,3-d]pyrimidin-1(2H)-yl)phenyl)cyclopropanecarboxamide], for which the IC80 with ERK phosphorylation (setting [2]) is 4 to 100 nM.
